Where two headings read alike, the source gives them in different places.
Tests used:
[1] = test system: MIA-PACA2 pancreatic cancer cell lines; assay: Cell proliferation assay (CellTiter 96 AQueous One); format: cell-based; conditions: Homo sapiens, MIA PaCa-2; for inhibition at 30 µM: MIA-PACA2
Protocol: (§1) Cell lines: Tumor-derived pancreatic cancer cell lines MIA-PACA2 were purchased from ATCC and grown in complete DMEM-High Glucose medium supplemented with penicillin (100 U/mL), streptomycin (100 μg/mL), and 10% heat-inactivated FBS at 37° C. in a humidified incubator with 5% CO2.
Method: Cells are plated at 1000 cells/well density in 96-wells plate, starved ON, and the next day tested small molecules are added to the cells in the final concentration of 30 μM with 0.3% DMSO 3 hours prior to 10% FBS addition. After serum addition cells are incubated for 6 days at 37° C. in a humidified incubator with 5% CO2. For IC50 value determination, serial dilutions of compounds were added to cells under the same conditions.
Assay: At the end of the incubation period, cell cultures are tested using the CellTiter 96® AQueous One Solution Cell Proliferation Assay kit (Promega Corporation, Madison, Wis.) according to the manufacturer specifications. Briefly, assay is performed by adding 20 μl of the CellTiter 96 Aqueous One Solution Reagent directly to culture wells, followed by for 1-4 hours incubation at 37° C. in a humidified incubator with 5% CO2. At the end of incubation time, absorbance at 492 nm is recorded with the 96-well plate reader Eppendorf AF2200, and degree of small molecule-dependent proliferation inhibition is calculated from raw data assuming No Serum cells value as 100%.

[2] = test system: MIA-PACA2 pancreatic cancer cell lines; assay: Cell proliferation assay, alternate assay conditions (DAPI staining); format: cell-based; conditions: Homo sapiens, MIA PaCa-2; for inhibition at 10 µM: * = tested at 10 μM, alternate conditions, MIA-PACA2; for IC50: MIA-PACA2 proliferation, same assay as % inhibition (alternate conditions)
Protocol: as §1
Method: Cells are plated at 4000 cells/well density in 96-wells plate. The next day tested small molecules are added to the cells in the final concentration of 10 μM in the presence of 0.3% DMSO and 10% FBS. After small molecules addition, cells are incubated for 4 days at 37° C. in a humidified incubator with 5% CO2. For IC50 value determination, serial dilutions of compounds were added to cells under the same conditions.
Assay: At the end of the incubation period, cell cultures are fixed with a 50-50 mixture (v/v) acetone-methanol for 10 minutes at −20° C., followed by rehydration in PBS for 10 minutes at room temperature. After rehydration, cells are stained with DAPI (1 μg/ml) in PBS for 10 minutes at room temperature, followed by 3 washes with PBS. After staining, DAPI fluorescence is recorded (358 nm excitation/461 nm emission) with the 96-well plate reader Molecular Devices Spectramax M3; degree of small mole-cule-dependent proliferation inhibition is calculated from raw data assuming No Serum cells value as 100%.

[3] = test system: TNFα; assay: Mouse TNF alpha quantification assay (LPS-stimulated RAW 264.7, ELISA); format: cell-based; conditions: Mus musculus, RAW264.7, 30 μM; RAW 264.7 murine leukemia virus transformed macrophage cell lines, LPS stimulation; read-out: TNF-α % Inhibition at 30 μM
Protocol: (§2) Cell lines: Abelson murine leukemia virus transformed macrophage cell line RAW 264.7 was purchased from ATCC and grown in complete DMEM-High Glucose medium supplemented with penicillin (100 U/mL), streptomycin (100 μg/mL), and 10% heat-inactivated FBS at 37° C. in a humidified incubator with 5% CO2.
(§3) Method: Cells were plated at 40000 cells/well density in a 96-wells plate. After a 3-hour incubation, macrophages were starved with DMEM plus 0.5% FBS o/n. The next day the small molecules to be tested were added to the cells in the final concentration of 30 μM (with 0.3% DMSO) 3 hours prior to LPS stimulation (100 ng/ml). After LPS stimulation cells were incubated at 37° C. for 16h. At the end of the incubation period, culture media were collected and production of LPS-induced TNFα and IL6 cytokine was measured using ELISA detection kits.
(§4) Sandwich ELISA: The ELISA Immunoassays Quantikine Mouse TNF-alpha (catalog number MTA00B) and IL6 (catalog number M6000B) were purchased from R&D Systems Inc., Minneapolis, Minn. These 4.5 hours solid phase ELISAs were used to measure mouse TNFα or IL6 levels in macrophages culture supernatants. Assays were executed according to the manufacturer specifications.

[4] = test system: IL6; assay: Mouse IL6 quantification assay (LPS-stimulated RAW 264.7, ELISA); format: cell-based; conditions: Mus musculus, RAW264.7, 30 μM; RAW 264.7 murine leukemia virus transformed macrophage cell lines, LPS stimulation; read-out: IL-6 % Inhibition at 30 μM
Protocol: as §2, §3, §4

[5] = biological target: KRas G12D mutant protein (Homo sapiens (Human), UniProt P01116, G12D); assay: Ras GTP binding domain inhibition assay
Protocol: The following method was developed as specific assay for KRas G12D mutant protein.
(§5) Buffer-I: • 50 mM Tris, pH 7.5 • 150 mM NaCl (optional) • 1 mM MgCl2 • 1 mM DTT. • KRas G12D mutant protein was expressed as a His-tagged protein. Purified His-KRas G12D protein was diluted in buffer-I to a final concentration of 3-10 μg/ml. • 200 μl of the diluted His-KRas G12D protein was added to a nickel coated 96 well plate and incubated overnight at 4° C. • The next day, wells were washed 3× in 200 μl of Buffer-I. • Then 200 μl of Buffer-I were added to each well in the presence of 1% DMSO. • Tested compounds were added to the protein-coated wells at a concentration of 20 μM, and incubated for 3 hours at room temperature. While performing IC50 measurements a serial dilution of all tested concentrations was prepared.
(§6) Then 22 μl of Cy3-GTP or Cy5-GTP was added to each well. The labeled GTP was incubated for 45 min. at room temperature. • Following GTP incubation, wells were washed 3× in Buffer-I, and 200 μl of Buffer-I were added to each well. • Following washes, the amount of bound labeled-GTP was measured with an Eppendorf AF2200 plate reader.

[6] = biological target: KRas G12C mutant (Homo sapiens (Human), UniProt P01116, G12C); assay: Ras GTP binding domain inhibition assay; conditions: 20 μM compound
Protocol: as §5, §6
(§7) By substituting KRas G12D mutant protein with KRas G12C mutant, KRas wild type, KRas Q61H mutant, KRas G12D/Q61H double mutant or KRas G12C/Q61H double mutant under the assay conditions described above, KRas G12C mutant KRas wild type, KRas Q61H mutant, KRas G12D/Q61H double mutant and KRas G12C/Q61H double mutant inhibition, respectively, were each determined.

[7] = biological target: KRas wild type (Homo sapiens (Human), UniProt P01116); assay: Ras GTP binding domain inhibition assay; conditions: 20 μM compound
Protocol: as §5, §6, §7

[8] = biological target: KRas G12D/Q61H double mutant (Homo sapiens (Human), UniProt P01116, G12D/Q61H); assay: Ras GTP binding domain inhibition assay; conditions: at 20 μM; read-out: KRas G12D Q61H % Inh.
Protocol: as §5, §6, §7

[9] = biological target: Rac-1 (Homo sapiens (Human), UniProt P63000); assay: Rac and Rho inhibition assay; format: binding; conditions: read-out: Rac-1 % Inh.
Protocol: as §5, §6
(§8) By substituting KRas G12D mutant protein with either Rac-1 or Rho-A under the assay conditions described in Example 5, Rac-1 and Rho-A inhibition, respectively, were each determined.

[10] = biological target: Rho-A (Homo sapiens (Human), UniProt P61586); assay: Rac and Rho inhibition assay; format: binding; conditions: read-out: Rho-A % Inh.
Protocol: as §5, §6, §8

[11] = 20 μM compound, read-out: % Inhibition at 20 μM, KRas G12D
[12] = at 20 μM, read-out: KRas G12D % Inh.

KRas G12D mutant protein, sequence (P01116-2 other isoform, or with tags, fused parts or gaps G12D): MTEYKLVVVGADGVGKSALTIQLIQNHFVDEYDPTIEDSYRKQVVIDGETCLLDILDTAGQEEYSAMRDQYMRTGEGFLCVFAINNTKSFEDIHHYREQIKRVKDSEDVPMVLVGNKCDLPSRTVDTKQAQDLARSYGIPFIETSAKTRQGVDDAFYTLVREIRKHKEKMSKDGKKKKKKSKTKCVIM
KRas G12C mutant, sequence (P01116-2 other isoform, or with tags, fused parts or gaps G12C): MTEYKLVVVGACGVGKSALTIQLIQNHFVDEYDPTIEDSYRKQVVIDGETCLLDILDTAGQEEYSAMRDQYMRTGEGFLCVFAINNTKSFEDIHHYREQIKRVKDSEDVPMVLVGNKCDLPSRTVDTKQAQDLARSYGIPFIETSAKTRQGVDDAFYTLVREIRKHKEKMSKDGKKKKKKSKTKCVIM
KRas wild type, sequence (P01116-2 other isoform, or with tags, fused parts or gaps): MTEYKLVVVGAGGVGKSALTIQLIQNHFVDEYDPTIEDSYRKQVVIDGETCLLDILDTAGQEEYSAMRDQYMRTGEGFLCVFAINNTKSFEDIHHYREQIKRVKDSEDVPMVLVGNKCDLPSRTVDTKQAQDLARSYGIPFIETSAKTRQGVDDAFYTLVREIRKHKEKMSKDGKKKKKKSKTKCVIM
Rho-A, sequence (P61586 whole entry): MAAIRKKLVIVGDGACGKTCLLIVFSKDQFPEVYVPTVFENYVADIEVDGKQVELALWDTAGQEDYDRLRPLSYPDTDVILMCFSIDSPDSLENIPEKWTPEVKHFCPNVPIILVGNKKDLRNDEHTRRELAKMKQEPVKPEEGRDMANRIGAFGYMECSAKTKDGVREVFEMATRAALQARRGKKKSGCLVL
KRas G12D/Q61H double mutant, sequence (P01116-2 other isoform, or with tags, fused parts or gaps G12D/Q61H): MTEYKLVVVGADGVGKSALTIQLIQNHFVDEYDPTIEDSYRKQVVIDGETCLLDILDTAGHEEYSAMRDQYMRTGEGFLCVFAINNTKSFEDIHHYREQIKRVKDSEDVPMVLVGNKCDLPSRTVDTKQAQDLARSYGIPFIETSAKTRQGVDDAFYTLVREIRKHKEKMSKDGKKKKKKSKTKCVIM

COCCOCCN(CCO)C(=O)c1csc2c(O)nc(-c3ccccn3)nc12
inhibition at 30 µM [1]: 1 to 25%

COc1cncc(CCNC(=O)c2csc3nc(-c4ccccn4)nc(N4CCOCC4)c23)c1
inhibition at 30 µM [1]: 51 to 75%

COCCCCNC(=O)c1csc2nc(-c3ccccn3)nc(N3CCSCC3)c12
inhibition at 30 µM [1]: 1 to 25%

Nc1nc(-c2ccccn2)nc2c(C(=O)N3CC4CC3CN4c3ccccc3)csc12 (stereo not shown)
inhibition at 30 µM [1]: 76 to 100%

Nc1nc(-c2ccccn2)nc2c(-c3ccccn3)csc12
inhibition at 30 µM [1]: 76 to 100% | IC50 ([1]; MIA-PACA2 proliferation, compound tested under both conditions, IC50 assay conditions not specified): > 1000 nM | inhibition at 10 µM [2]: 76 to 100%

COc1nc(-c2ccccn2)nc2c(-c3cccc(O)c3)csc12
inhibition at 10 µM [2]: 76 to 100%

COc1nc(-c2ccccn2)nc2c(-c3cn(C)nc3C(C)C)csc12
inhibition at 10 µM [2]: 76 to 100%

COc1nc(-c2ccccn2)nc2c(-c3cc(CN4CCCC4)ccc3F)csc12
inhibition at 10 µM [2]: 76 to 100%

COc1nc(-c2ccccn2)nc2c(-c3cccc(C#N)c3)csc12
inhibition at 10 µM [2]: 76 to 100%

O=c1[nH]c(-c2ccccn2)nc2c(C3O[C@H](CO)[C@@H](O)[C@H]3O)csc12 (stereo partly shown)
inhibition at 10 µM [2]: 76 to 100%

COOCCNc1nc(-c2nccn2C)nc2sc(-c3ccccc3)c(-c3ccccc3)c12
inhibition at 10 µM [2]: 76 to 100% | IC50 [2]: 501 to 1000 nM

COCC(C)Nc1nc(-c2ccccn2)nc2sc(-c3ccncc3)c(-c3ccccc3)c12 (stereo not shown)
inhibition at 10 µM [2]: 51 to 75%

SOCCNc1nc(-c2ccccn2)nc2sc(-c3ccccc3)c(-c3ccccn3)c12
inhibition at 10 µM [2]: 76 to 100%

Cn1ccnc1-c1nc(NCCOS)c2c(-c3ccccn3)c(-c3ccccc3)sc2n1
inhibition at 10 µM [2]: 76 to 100% | IC50 [2]: 501 to 1000 nM

CC(C)Cc1csc2c(N)nc(-c3ccccn3)nc12
inhibition at 30 µM [3]: 76 to 100% | inhibition at 30 µM [4]: 76 to 100%

Nc1cccc(-c2csc3c(N)nc(-c4ccccn4)nc23)n1
inhibition at 30 µM [3]: 26 to 50% | inhibition at 30 µM [4]: 76 to 100%

Cc1sc2c(N)nc(-c3ccccn3)nc2c1-c1ccccc1Cl
inhibition at 30 µM [3]: 51 to 75% | inhibition at 30 µM [4]: 51 to 75%

COCC(C)Nc1nc(-c2ccccc2)nc2sc(-c3ccncc3)c(-c3ccccc3)c12 (stereo not shown)
inhibition at 30 µM [3]: 26 to 50% | inhibition at 30 µM [4]: 0%

COCCOc1nc(-c2ccncn2)nc2sc(-c3ccccc3)c(-c3ccccc3)c12
inhibition at 20 µM [5, 11]: 0% | inhibition at 20 µM [6]: 1 to 25% | inhibition at 20 µM [7]: 1 to 25%

Cc1cccc(-c2c(C)sc3c(O)nc(-c4nccn4C)nc23)c1
inhibition at 20 µM [5, 11]: 1 to 25% | inhibition at 20 µM [6]: 1 to 25% | inhibition at 20 µM [7]: 1 to 25%

Cc1ccc(-c2csc3c(O)nc(-c4nccn4C)nc23)c(F)c1
inhibition at 20 µM [5, 11]: 25 to 50% | inhibition at 20 µM [6]: 1 to 25% | inhibition at 20 µM [7]: 1 to 25%

Nc1nc(-c2ccccn2)nc2c(CC3CCNCC3)csc12
inhibition at 20 µM [5, 12]: 51 to 75% | inhibition at 20 µM [8]: 51 to 75% | inhibition at 20 µM [9]: 51 to 75% | inhibition at 20 µM [10]: 76 to 100%

CC(O)ONc1nc(-c2nccn2C)nc2sc(-c3ccccc3)c(-c3ccccc3)c12 (stereo not shown)
inhibition at 20 µM [5, 12]: 1 to 25% | inhibition at 20 µM [9]: 25 to 50% | inhibition at 20 µM [10]: 25 to 50%

COc1ccc(CCNC(=O)c2csc3nc(-c4ccccn4)nc(N4CCSCC4)c23)cn1 [drawing 1763]
inhibition at 30 µM [1]: 51 to 75%

O=C(NCCc1cnc(O)nc1)c1csc2nc(-c3ccccn3)nc(N3CCSCC3)c12 [drawing 1764]
inhibition at 30 µM [1]: 1 to 25%

Cc1cc2nc(-c3ccccn3)nc(O)c2s1 [drawing 2263]
inhibition at 30 µM [3]: 1 to 25% | inhibition at 30 µM [4]: 1 to 25%

COc1ccc(CCNC(=O)c2csc3nc(-c4ccccn4)nc(N4CCSCC4)c23)cn1 [drawing 2280]
inhibition at 30 µM [3]: 0% | inhibition at 30 µM [4]: 26 to 50%

O=C(NCCc1cnc(O)nc1)c1csc2nc(-c3ccccn3)nc(N3CCSCC3)c12 [drawing 2281]
inhibition at 30 µM [3]: 0% | inhibition at 30 µM [4]: 51 to 75%

OC[C@H]1O[C@@H](c2csc3c2N=C(c2ccccn2)NC3O)[C@H](O)[C@@H]1O (stereo partly shown) [drawing 2388]
inhibition at 30 µM [3]: 26 to 50% | inhibition at 30 µM [4]: 1 to 25%

COCCNc1nc(-c2nccn2C)nc2sc(-c3ccccc3)c(-c3ccccc3)c12 [drawing 3594]
% Inhibition at 20 μM, KRas G12D ([5]; 20 μM compound): B (B = 25-50% inhibition) | % Inhibition at 20 μM, KRas G12C [6]: A (A = 1-25% inhibition) | % Inhibition at 20 μM, KRas wild type [7]: B (B = 25-50% inhibition)
